Test results from US8846933B2, “N-link hydroxamic acid derivatives useful as antibacterial agents” (Pfizer Inc., priority 2009, dated 2014).

Key:
[1] = tested on: Escherichia coli EC-1: VOGEL, mouse virulent; assay: MIC determination (CLSI), strain EC-1; format: cell-based; conditions: strain EC-1, unit assumed
Procedure, shortened: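 The mouse-virulent VOGEL isolate of E. coli, EC-1, served as test organism. Minimum inhibitory concentration was measured by CLSI dilution methodology (M7-A7; M100-S18 standards).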

[2] = tested on: Pseudomonas aeruginosa UI-18: Wild-type (PA-7); assay: MIC determination (CLSI), strain PA-7; format: cell-based; conditions: strain PA-7, unit assumed
Procedure, shortened: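 Strain tested was P. aeruginosa UI-18, a wild-type isolate labelled PA-7. Minimum inhibitory concentrations followed CLSI dilution methodology for aerobically growing bacteria (M7-A7, M100-S18).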

[3] = generated in the same manner as in Table 4

SMILES | EC-1 (MIC) [1] | PA-7 (MIC) [2] | EC-1 (MIC) [1, 3] | PA-7 (MIC) [2, 3]
Cc1cc(-c2ccn(CCC(C)(C(=O)NO)S(C)(=O)=O)c(=O)c2)ccc1OCCCN1CCOCC1 (stereo not drawn) [Example 222, N-hydroxy-2-methyl-4-{4-[3-methyl-4-(3-morpholin-4-ylpropoxy)phenyl]-2-oxopyridin-1(2H)-yl}-2-(methylsulfonyl)butanamide] | 2 µg/mL | 8 µg/mL |  | 
C[C@@](CCn1ccc(-c2ccc(Oc3cccnc3C#N)cc2)cc1=O)(C(=O)NO)S(C)(=O)=O [Example 442, (2R)-4-[4-{4-[(2-cyanopyridin-3-yl)oxy]phenyl}-2-oxopyridin-1(2H)-yl]-N-hydroxy-2-methyl-2-(methylsulfonyl)butanamide] | 4 µg/mL | 4 µg/mL |  | 
CC(CCn1ccc(-c2ccc(Br)c(F)c2)cc1=O)(C(=O)NO)S(C)(=O)=O (stereo not drawn) [Example 282, 4-[4-(4-bromo-3-fluorophenyl)-2-oxopyridin-1(2H)-yl]-N-hydroxy-2-methyl-2-(methylsulfonyl)butanamide] | 0.5 µg/mL | 1 µg/mL |  | 
Cc1ccc(S(=O)(=O)N(C)C)cc1-c1ccn(CCC(C)(C(=O)NO)S(C)(=O)=O)c(=O)c1 (stereo not drawn) [Example 160, 4-[4-{5-[(dimethylamino)sulfonyl]-2-methylphenyl}-2-oxopyridin-1(2H)-yl]-N-hydroxy-2-methyl-2-(methylsulfonyl)butanamide] |  |  | > 64 µg/mL | > 64 µg/mL
CC(C)(C#N)Cc1ccc(-c2ccn(CC[C@](C)(C(=O)NO)S(C)(=O)=O)c(=O)c2)cc1 [Example 343, (2R)-4-{4-[4-(2-cyano-2-methylpropyl)phenyl]-2-oxopyridin-1(2H)-yl}-N-hydroxy-2-methyl-2-(methylsulfonyl)butanamide] | 8 µg/mL | 2 µg/mL |  | 
COc1cc(-c2ccn(CC[C@](C)(C(=O)NO)S(C)(=O)=O)c(=O)c2)c(F)cc1C#N [Example 477] | 64 µg/mL | 32 µg/mL |  | 
CN1CCN(CCCOc2ccc(-c3ccn(CCC(C)(C(=O)NO)S(C)(=O)=O)c(=O)c3)cc2)CC1 (stereo not drawn) [Example 87] |  |  | 64 µg/mL | 32 µg/mL
CC(CCn1ccc(-c2ccc(OCCCN3CCSCC3)cc2)cc1=O)(C(=O)NO)S(C)(=O)=O (stereo not drawn) [Example 81, N-hydroxy-2-methyl-2-(methylsulfonyl)-4-{2-oxo-4-[4-(3-thiomorpholin-4-ylpropoxy)phenyl]pyridin-1(2H)-yl}butanamide] |  |  | 2 µg/mL | 4 µg/mL
Cc1cc(OCCO)ccc1-c1ccn(CCC(C)(C(=O)NO)S(C)(=O)=O)c(=O)c1 (stereo not drawn) [Example 237, N-hydroxy-4-{4-[4-(2-hydroxyethoxy)-2-methylphenyl]-2-oxopyridin-1(2H)-yl}-2-methyl-2-(methylsulfonyl)butanamide] | > 64 µg/mL | 32 µg/mL |  | 
CC(CCn1ccc(-c2ccc(Cl)cc2)cc1=O)(C(=O)NO)S(C)(=O)=O (stereo not drawn) [Example 141, 4-[4-(4-chlorophenyl)-2-oxopyridin-1(2H)-yl]-N-hydroxy-2-methyl-2-(methylsulfonyl)butanamide] |  |  | 1 µg/mL | 1 µg/mL
CC(CCn1ccc(-c2ccc(OCCCN3CC(O)C3)cc2)cc1=O)(C(=O)NO)S(C)(=O)=O (stereo not drawn) [Example 84, N-hydroxy-4-[4-{4-[3-(3-hydroxyazetidin-1-yl)propoxy]phenyl}-2-oxopyridin-1(2H)-yl]-2-methyl-2-(methylsulfonyl)butanamide] |  |  | > 64 µg/mL | 32 µg/mL
CC(CCn1ccc(-c2ccc3ccncc3c2)cc1=O)(C(=O)NO)S(C)(=O)=O (stereo not drawn) [Example 261, N-hydroxy-4-(4-isoquinolin-7-yl-2-oxopyridin-1(2H)-yl)-2-methyl-2-(methylsulfonyl)butanamide] | 8 µg/mL | 4 µg/mL |  | 
COCc1ccccc1-c1ccn(CCC(C)(C(=O)NO)S(C)(=O)=O)c(=O)c1 (stereo not drawn) [Example 191, N-hydroxy-4-{4-[2-(methoxymethyl)phenyl]-2-oxopyridin-1(2H)-yl}-2-methyl-2-(methylsulfonyl)butanamide] | > 64 µg/mL | > 64 µg/mL |  | 
Cc1cc(-c2ccn(CCC(C)(C(=O)NO)S(C)(=O)=O)c(=O)c2)ccc1OCCCn1cncn1 (stereo not drawn) [Example 293, N-hydroxy-2-methyl-2-(methylsulfonyl)-4-[4-{3-methyl-4-[3-(1H-1,2,4-triazol-1-yl)propoxy]phenyl}-2-oxopyridin-1(2H)-yl]butanamide] | 4 µg/mL | 16 µg/mL |  | 
Cc1cnc(-c2ccc(-c3ccn(CC[C@](C)(C(=O)NO)S(C)(=O)=O)c(=O)c3)cc2)nc1 [Example 461] | 0.125 µg/mL | 1 µg/mL |  | 
Cc1c(OCCCCO)ccc(-c2ccn(CC[C@](C)(C(=O)NO)S(C)(=O)=O)c(=O)c2)c1F [Example 324] | 0.25 µg/mL | 2 µg/mL |  | 
CC(CCn1ccc(-c2ccc(OCCCN3CCC(O)CC3)cc2)cc1=O)(C(=O)NO)S(C)(=O)=O (stereo not drawn) [Example 83, N-hydroxy-4-[4-{4-[3-(4-hydroxypiperidin-1-yl)propoxy]phenyl}-2-oxopyridin-1(2H)-yl]-2-methyl-2-(methylsulfonyl)butanamide] |  |  | 32 µg/mL | 16 µg/mL

SMILES | EC-1 (MIC) [1] | PA-7 (MIC) [2] | EC-1 (MIC) [1, 3] | PA-7 (MIC) [2, 3]
CC(CCn1ccc(-c2ccccc2F)cc1=O)(C(=O)NO)S(C)(=O)=O (stereo not drawn) [Example 159, 4-[4-(2-fluorophenyl)-2-oxopyridin-1(2H)-yl]-N-hydroxy-2-methyl-2-(methylsulfonyl)butanamide] |  |  | 2 µg/mL | 2 µg/mL
CC(CCn1ccc(-c2ccc(OCCCCCO)cc2)cc1=O)(C(=O)NO)S(C)(=O)=O (stereo not drawn) [Example 229, N-hydroxy-4-[4-{4-[(5-hydroxypentyl)oxy]phenyl}-2-oxopyridin-1(2H)-yl]-2-methyl-2-(methylsulfonyl)butanamide] | 0.25 µg/mL | 2 µg/mL |  | 
CC(=O)c1ccc(-c2ccn(CC[C@](C)(C(=O)NO)S(C)(=O)=O)c(=O)c2)c(F)c1 [Example 320] | 1 µg/mL | 2 µg/mL |  | 
Cc1cc(-c2ccn(CCC(C)(C(=O)NO)S(C)(=O)=O)c(=O)c2)ccn1 (stereo not drawn) [Example 209, N-hydroxy-2-methyl-4-(2′-methyl-2-oxo-4,4′-bipyridin-1(2H)-yl)-2-(methylsulfonyl)butanamide] | 64 µg/mL | 32 µg/mL |  | 
CC(CCn1ccc(-c2ccc(F)c(Cl)c2)cc1=O)(C(=O)NO)S(C)(=O)=O (stereo not drawn) [Example 214] | 1 µg/mL | 2 µg/mL |  | 
Cc1cnc2cc(-c3ccn(CCC(C)(C(=O)NO)S(C)(=O)=O)c(=O)c3)ccc2c1 (stereo not drawn) [Example 308, N-hydroxy-2-methyl-4-[4-(3-methylquinolin-7-yl)-2-oxopyridin-1(2H)-yl]-2-(methylsulfonyl)butanamide] | 2 µg/mL | 4 µg/mL |  | 
C[C@@](CCn1ccc(-c2ccc(OCCCC3CCN(C(=O)CO)CC3)cc2)cc1=O)(C(=O)NO)S(C)(=O)=O [Example 313, (2R)-4-[4-{4-[3-(1-glycoloylpiperidin-4-yl)propoxy]phenyl}-2-oxopyridin-1(2H)-yl]-N-hydroxy-2-methyl-2-(methylsulfonyl)butanamide] | 0.5 µg/mL | 4 µg/mL |  | 
CC(CCn1ccc(-c2cc3ccncc3cc2F)cc1=O)(C(=O)NO)S(C)(=O)=O (stereo not drawn) [Example 306, 4-[4-(7-fluoroisoquinolin-6-yl)-2-oxopyridin-1(2H)-yl]-N-hydroxy-2-methyl-2-(methylsulfonyl)butanamide] | 8 µg/mL | 4 µg/mL |  | 
CC(CCn1ccc(-c2ccc3c(ccn3CCO)c2)cc1=O)(C(=O)NO)S(C)(=O)=O (stereo not drawn) [Example 265, N-hydroxy-4-{4-[1-(2-hydroxyethyl)-1H-indol-5-yl]-2-oxopyridin-1(2H)-yl}-2-methyl-2-(methylsulfonyl)butanamide] | 4 µg/mL | 16 µg/mL |  | 
C[C@@](CCn1ccc(-c2ccc(-c3ncc[nH]3)cc2)cc1=O)(C(=O)NO)S(C)(=O)=O [Example 367, (2R)-N-hydroxy-4-{4-[4-(1H-imidazol-2-yl)phenyl]-2-oxopyridin-1(2H)-yl}-2-methyl-2-(methylsulfonyl)butanamide] | 8 µg/mL | > 64 µg/mL |  | 
Cc1cc(-c2ccc(-c3ccn(CC[C@](C)(C(=O)NO)S(C)(=O)=O)c(=O)c3)cc2)no1 [Example 370, (2R)-N-hydroxy-2-methyl-4-{4-[4-(5-methylisoxazol-3-yl)phenyl]-2-oxopyridin-1(2H)-yl}-2-(methylsulfonyl)butanamide] | 0.125 µg/mL | 0.5 µg/mL |  | 
Cc1cc(-c2ccn(CC[C@](C)(C(=O)NO)S(C)(=O)=O)c(=O)c2)ccc1F [Example 325, (2R)-4-[4-(4-fluoro-3-methylphenyl)-2-oxopyridin-1(2H)-yl]-N-hydroxy-2-methyl-2-(methylsulfonyl)butanamide] | 0.5 µg/mL | 0.5 µg/mL |  | 
CC(CCn1ccc(-c2cc(F)cc(Cl)c2)cc1=O)(C(=O)NO)S(C)(=O)=O (stereo not drawn) [Example 121, 4-[4-(3-chloro-5-fluorophenyl)-2-oxopyridin-1(2H)-yl]-N-hydroxy-2-methyl-2-(methylsulfonyl)butanamide] |  |  | 8 µg/mL | 16 µg/mL
Cc1cc(-n2nccn2)ccc1-c1ccn(CC[C@](C)(C(=O)NO)S(C)(=O)=O)c(=O)c1 [Example 358, (2R)-N-hydroxy-2-methyl-2-(methylsulfonyl)-4-{4-[2-methyl-4-(2H-1,2,3-triazol-2-yl)phenyl]-2-oxopyridin-1(2H)-yl}butanamide] | 0.25 µg/mL | 1 µg/mL |  | 
CC(CCn1ccc(-c2ccco2)cc1=O)(C(=O)NO)S(C)(=O)=O (stereo not drawn) [Example 175, 4-[4-(2-furyl)-2-oxopyridin-1(2H)-yl]-N-hydroxy-2-methyl-2-(methylsulfonyl)butanamide] |  |  | 64 µg/mL | 16 µg/mL
Cc1cc(-c2ccc(-c3ccn(CC[C@](C)(C(=O)NO)S(C)(=O)=O)c(=O)c3)cc2)[nH]n1 [Example 369] | 2 µg/mL | 4 µg/mL |  | 
